The values below are quoted from earlier work in US6348583B1, “Poly(ether-thioether), poly(ether-sulfoxide) and poly(ether-sulfone) nucleic acids” (Bio-Rad Laboratories, Inc., priority 1999, dated 2002).

Like-named read-outs stand apart in the source and are kept apart here.

For series [1] the following is noted: aqueous buffers.
Another series relates to dA10. Particulars: duplex with dA10.

As to “d(CpT)8: methylphosphonate oligonucleotide analog, SEQ ID NO:21 (DNA CTCTCTCTCTCTCTCT; methylphosphonate backbone, further chemistry not given here)”, the solubility entry in series [1] (result in words) was “soluble up to millimolar concentrations”. In the case of “d(ApG)8: methylphosphonate oligonucleotide analog, SEQ ID NO:22 (DNA GAGAGAGAGAGAGAGA; methylphosphonate backbone, further chemistry not given here)”, the solubility entry in series [1] is “less than 0.1 mM”. On to “dT10: native DNA dT10, duplex with dA10 (SEQ ID NO:18) (TTTTTTTTTT)”, for which the Tm value result with dA10 was “about 24 °C”.
